According to article PMC5862616 (Oncotarget, 2018):
Entries after “also recorded” stand apart in the source; their conditions may differ.

Columns and labels:
[1] = test system: p-ERK (MAPK 42/44) in KM-12 cells; experiment: Western blot of phosphorylated MAPK 42/44 (ERK) in KM-12 cells; assay type: cell-based; details: KM-12 cells, 2 hours, western blot; b12: 100, 500, 1000 nM
Procedure: 20 μg NTRK1 fusion confirmation
T20 (ThermoScientific, Rockford, IL) for 30 minutes. MiniPrep cat# R2051 following manufacturer ’s protocol. […]
(1:2000) (Sigma-Aldrich), HRP-conjugated mouse or primers. The primer sequences are TPM3_Ex3B_F5:
Chalfont, UK). All western blots were developed using Ex12_R5: […]. PCR was […]

[2] = molecular target: PDGFRA (Homo sapiens, UniProt P16234); experiment: scanMAX kinase panel
[3] = molecular target: T1, FLT3 (Homo sapiens, UniProt P36888); experiment: scanMAX kinase panel
T1 sequence (P36888 27-993): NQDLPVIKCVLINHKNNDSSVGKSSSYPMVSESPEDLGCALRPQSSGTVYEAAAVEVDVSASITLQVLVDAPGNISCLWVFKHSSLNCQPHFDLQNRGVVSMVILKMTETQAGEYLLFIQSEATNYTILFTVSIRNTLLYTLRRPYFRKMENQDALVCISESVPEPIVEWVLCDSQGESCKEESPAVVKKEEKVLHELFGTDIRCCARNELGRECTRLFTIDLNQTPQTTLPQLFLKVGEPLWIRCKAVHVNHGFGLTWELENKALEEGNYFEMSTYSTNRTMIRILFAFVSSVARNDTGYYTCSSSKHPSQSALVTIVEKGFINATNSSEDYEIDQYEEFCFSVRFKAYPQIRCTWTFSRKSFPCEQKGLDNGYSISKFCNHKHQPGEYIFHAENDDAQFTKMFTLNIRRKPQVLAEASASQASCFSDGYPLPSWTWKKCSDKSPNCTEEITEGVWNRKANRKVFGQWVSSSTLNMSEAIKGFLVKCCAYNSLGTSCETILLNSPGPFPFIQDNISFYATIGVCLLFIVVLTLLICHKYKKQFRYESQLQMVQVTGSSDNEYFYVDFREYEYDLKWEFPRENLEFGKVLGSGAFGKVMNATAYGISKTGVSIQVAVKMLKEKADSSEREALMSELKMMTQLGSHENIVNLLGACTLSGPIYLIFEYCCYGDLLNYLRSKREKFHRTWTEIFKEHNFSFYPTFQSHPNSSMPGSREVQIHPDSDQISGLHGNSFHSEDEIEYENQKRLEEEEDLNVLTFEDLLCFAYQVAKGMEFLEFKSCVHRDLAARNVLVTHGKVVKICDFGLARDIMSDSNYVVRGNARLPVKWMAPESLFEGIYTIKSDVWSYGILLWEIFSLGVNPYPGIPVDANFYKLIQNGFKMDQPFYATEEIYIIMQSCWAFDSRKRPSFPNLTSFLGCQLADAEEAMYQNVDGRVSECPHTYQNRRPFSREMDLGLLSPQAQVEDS

[4] = molecular target: T2, TYRO3 (Homo sapiens, UniProt Q06418); experiment: scanMAX kinase panel
T2 sequence (Q06418 41-890): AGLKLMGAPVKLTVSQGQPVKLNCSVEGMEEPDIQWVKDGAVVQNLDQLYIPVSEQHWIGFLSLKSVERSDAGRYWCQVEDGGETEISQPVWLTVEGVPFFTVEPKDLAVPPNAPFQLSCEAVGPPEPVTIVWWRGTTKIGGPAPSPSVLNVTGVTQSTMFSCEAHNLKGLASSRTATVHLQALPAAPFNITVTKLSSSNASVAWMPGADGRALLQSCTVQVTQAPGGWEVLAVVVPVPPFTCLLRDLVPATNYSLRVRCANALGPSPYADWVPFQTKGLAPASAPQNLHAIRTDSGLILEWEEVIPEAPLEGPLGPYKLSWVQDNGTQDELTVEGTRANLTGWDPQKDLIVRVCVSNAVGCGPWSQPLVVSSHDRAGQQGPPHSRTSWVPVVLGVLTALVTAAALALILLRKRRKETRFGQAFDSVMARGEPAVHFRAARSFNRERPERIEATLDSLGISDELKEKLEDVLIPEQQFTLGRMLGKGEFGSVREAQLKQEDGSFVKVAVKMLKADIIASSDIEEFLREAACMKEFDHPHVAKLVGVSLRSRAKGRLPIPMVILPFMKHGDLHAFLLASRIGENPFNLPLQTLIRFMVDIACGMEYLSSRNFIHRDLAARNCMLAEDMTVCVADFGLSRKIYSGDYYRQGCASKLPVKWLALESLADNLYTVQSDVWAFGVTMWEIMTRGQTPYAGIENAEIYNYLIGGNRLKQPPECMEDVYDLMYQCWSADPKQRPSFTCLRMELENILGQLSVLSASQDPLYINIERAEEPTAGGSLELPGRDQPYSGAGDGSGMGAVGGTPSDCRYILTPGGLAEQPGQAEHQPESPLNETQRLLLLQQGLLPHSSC

[5] = molecular target: DDR1 (Homo sapiens, UniProt Q08345); experiment: scanMAX kinase panel
[6] = molecular target: T3, DDR2 (Homo sapiens, UniProt Q16832); experiment: scanMAX kinase panel
T3 sequence (Q16832 22-855): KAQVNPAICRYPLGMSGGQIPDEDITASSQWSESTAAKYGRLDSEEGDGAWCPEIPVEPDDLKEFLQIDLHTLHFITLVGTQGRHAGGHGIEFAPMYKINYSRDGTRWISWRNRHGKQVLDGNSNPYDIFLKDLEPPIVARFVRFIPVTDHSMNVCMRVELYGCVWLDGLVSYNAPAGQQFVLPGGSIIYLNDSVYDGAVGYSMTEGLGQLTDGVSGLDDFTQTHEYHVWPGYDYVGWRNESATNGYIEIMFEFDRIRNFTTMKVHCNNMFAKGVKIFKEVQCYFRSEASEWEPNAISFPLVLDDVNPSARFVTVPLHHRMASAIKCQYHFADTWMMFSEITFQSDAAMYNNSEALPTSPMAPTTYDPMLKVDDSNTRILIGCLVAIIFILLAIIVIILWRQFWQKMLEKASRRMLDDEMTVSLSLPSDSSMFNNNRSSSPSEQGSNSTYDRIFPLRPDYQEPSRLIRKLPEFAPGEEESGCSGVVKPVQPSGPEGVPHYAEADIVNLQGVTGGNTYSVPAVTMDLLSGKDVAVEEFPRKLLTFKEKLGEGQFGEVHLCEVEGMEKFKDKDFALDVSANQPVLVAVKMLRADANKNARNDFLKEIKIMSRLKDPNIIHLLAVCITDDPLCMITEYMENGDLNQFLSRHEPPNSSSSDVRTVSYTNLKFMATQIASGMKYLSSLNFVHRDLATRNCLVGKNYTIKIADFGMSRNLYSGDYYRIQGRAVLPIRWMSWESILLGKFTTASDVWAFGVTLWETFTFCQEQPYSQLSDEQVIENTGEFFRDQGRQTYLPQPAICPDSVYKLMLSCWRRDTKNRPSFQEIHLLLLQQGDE

DDR1, sequence (Q08345 19-913): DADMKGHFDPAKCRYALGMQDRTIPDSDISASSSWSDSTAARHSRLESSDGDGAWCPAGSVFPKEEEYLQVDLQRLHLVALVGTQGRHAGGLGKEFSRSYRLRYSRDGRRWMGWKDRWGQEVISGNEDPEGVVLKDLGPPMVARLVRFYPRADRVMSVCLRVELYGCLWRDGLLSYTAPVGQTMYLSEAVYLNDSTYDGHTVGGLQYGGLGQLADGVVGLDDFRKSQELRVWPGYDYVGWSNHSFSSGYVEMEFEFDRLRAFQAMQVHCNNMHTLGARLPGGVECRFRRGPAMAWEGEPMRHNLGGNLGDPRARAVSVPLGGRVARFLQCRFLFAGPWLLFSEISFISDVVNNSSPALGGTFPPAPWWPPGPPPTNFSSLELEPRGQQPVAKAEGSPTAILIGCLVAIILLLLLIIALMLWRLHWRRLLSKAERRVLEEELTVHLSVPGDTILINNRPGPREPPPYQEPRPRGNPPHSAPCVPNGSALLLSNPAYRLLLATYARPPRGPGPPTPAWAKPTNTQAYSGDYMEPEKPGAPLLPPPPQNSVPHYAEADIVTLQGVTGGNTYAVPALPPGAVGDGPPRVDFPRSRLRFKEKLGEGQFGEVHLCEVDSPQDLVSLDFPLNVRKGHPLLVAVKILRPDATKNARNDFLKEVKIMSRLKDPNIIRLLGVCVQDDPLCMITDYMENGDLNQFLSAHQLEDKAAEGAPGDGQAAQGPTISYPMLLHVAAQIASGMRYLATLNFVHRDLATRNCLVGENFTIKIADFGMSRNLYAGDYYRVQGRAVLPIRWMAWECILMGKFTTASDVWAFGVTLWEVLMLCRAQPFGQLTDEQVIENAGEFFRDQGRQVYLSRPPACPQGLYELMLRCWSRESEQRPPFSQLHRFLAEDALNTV
PDGFRA, sequence (P16234 24-1089): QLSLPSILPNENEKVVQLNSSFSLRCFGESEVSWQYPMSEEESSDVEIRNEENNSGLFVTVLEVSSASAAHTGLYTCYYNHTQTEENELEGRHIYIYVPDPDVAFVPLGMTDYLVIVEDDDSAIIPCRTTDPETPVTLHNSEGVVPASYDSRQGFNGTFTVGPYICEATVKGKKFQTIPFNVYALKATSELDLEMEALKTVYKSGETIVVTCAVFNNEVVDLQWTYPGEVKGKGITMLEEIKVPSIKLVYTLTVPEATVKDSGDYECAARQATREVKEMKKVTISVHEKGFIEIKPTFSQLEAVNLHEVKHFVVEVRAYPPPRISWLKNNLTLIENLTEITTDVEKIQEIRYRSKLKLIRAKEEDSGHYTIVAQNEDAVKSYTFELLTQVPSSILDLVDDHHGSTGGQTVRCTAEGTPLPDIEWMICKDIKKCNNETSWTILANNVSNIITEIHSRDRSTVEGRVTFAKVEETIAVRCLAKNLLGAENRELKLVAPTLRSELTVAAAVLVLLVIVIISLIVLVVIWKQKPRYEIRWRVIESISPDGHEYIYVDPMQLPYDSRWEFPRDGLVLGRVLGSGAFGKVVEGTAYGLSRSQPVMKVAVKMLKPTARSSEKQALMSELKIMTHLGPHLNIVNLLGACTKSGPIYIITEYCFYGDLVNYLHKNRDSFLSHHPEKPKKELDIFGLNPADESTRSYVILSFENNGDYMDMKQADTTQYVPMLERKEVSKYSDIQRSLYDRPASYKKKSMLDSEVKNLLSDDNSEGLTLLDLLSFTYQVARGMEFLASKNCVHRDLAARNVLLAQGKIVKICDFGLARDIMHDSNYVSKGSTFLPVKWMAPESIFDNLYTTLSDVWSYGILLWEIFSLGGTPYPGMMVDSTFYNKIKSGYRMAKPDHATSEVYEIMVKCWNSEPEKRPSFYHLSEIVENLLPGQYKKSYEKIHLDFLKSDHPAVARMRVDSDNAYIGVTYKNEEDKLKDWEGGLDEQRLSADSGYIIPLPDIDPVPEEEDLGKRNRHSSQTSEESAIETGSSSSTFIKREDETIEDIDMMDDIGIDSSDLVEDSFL

| SMILES | p-ERK inhibition (in words) [1] | % Inhibition at 0.2 μM, PDGFRA [2] [%] | % Inhibition at 0.2 μM, FLT3 [3] [%] | % Inhibition at 0.2 μM, TYRO3 [4] [%] | % Inhibition at 0.2 μM, DDR1 [5] [%] | % Inhibition at 0.2 μM, DDR2 [6] [%] |
| --- | --- | --- | --- | --- | --- | --- |
| Cc1ccc(C(=O)Nc2ccc(Oc3cc4cn[nH]c4cc3-c3cn[nH]c3)c(F)c2)c(=O)n1-c1ccc(F)cc1 [M1] | potent inhibition | 80 | 96 | 100 | 100 | 94 |
| Cn1ncc2cc(Oc3ccc(NC(=O)c4ccc(CO)n(-c5ccc(F)cc5)c4=O)cc3F)c(-c3cn[nH]c3)cc21 [M2] | slightly less so | 70 | 97 | 97 | 100 | 99 |
| Cc1ccc(C(=O)Nc2ccc(Oc3cc4cnn(C)c4cc3-c3cn[nH]c3)c(F)c2)c(=O)n1-c1ccc(F)cc1 [Merestinib] | dose dependent inhibition; also recorded: potent inhibition | 55 | 95 | 99 | 100 | 97 |
